The source of these data is patent publication US7642277B2, “Non-nucleoside reverse transcriptase inhibitors” (Boehringer Ingelheim International GmbH, priority 2002, dated 2010).

Some results are limits rather than exact numbers.

The assay has as its target T1, HIV-1 RT enzyme (wild type) (Human immunodeficiency virus type 1 group M subtype B, UniProt P04585).
T1 construct: The reverse transcriptase (RT) enzyme assay has been adapted to a 96-well microtiter plate format
As to the kind of experiment: Reverse transcriptase (RT) enzymatic assay (IC50), PicoGreen fluorescence, wild type. The format is biochemical. The settings on record: RT enzymatic assay, wild type; read-out: IC50 WT. As to the method:
Reverse Transcriptase (RT) Assays Enzymatic Assay (IC50)
The enzymatic assay employed is described as follows: The reverse transcriptase (RT) enzyme assay has been adapted to a 96-well microtiter plate format and uses PicoGreen™ as a fluorescent intercalator. More explicitly, the HIV-1 RT enzyme was thawed and appropriately diluted into Tris/HCl 50 mM pH 7.8 containing NaCl 60 mM, MgCl2∘6H2O 2 mM, DTT 6 mM, GSH 2 mM and 0.02% w/v Chaps to give ≈10 nM enzyme. […] The plate was pre-incubated for 15 minutes at room temperature before proceeding to the next step. […] Then the enzymatic reaction was initiated by addition of 20 μL of substrate solution. […] After addition of the substrate cocktail, the plate was covered with a plastic seal and incubated for 50 minutes at 37° C. in a dry incubator. The reaction was then quenched by addition of 5 μL of EDTA 0.5 M. The plate was shaken for 30 seconds at medium speed and incubated for 5 minutes at room temperature. Then 160 μL of PicoGreen™ 1:400 dilution from commercial stock (diluted in Tris 20 mM pH 7.5 with EDTA 1 mM) was added and the plate was shaken for 30 seconds and incubated for 10 minutes at room temperature. […] Each row contained at its extremities a blank and a control well.
Table legend: A=>100; B=100-50; C=<50; NT=not tested
With `O=C(CSc1nnnn1-c1cccc2ccccc12)Nc1ccncc1` [Entry 245], the IC50 is greater than 100 nM. As for `NC(=O)c1ccccc1NC(=O)CSc1nnnn1-c1cccc2ccccc12` [Entry 217], the figure is greater than 100 nM; as for `O=C(CSc1nc2ccccc2n1-c1ccccc1)Nc1ccccc1[N+](=O)[O-]` [Entry 412], greater than 100 nM; as for `O=C1c2ccccc2C(=O)N1CCSc1nnnn1-c1cccc2ccccc12` [Entry 341], greater than 100 nM. As for `O=C(CSc1nnnn1-c1cccc2ccccc12)Nc1ccccc1N1CCOCC1` [Entry 221], the figure is greater than 100 nM. The result for `O=C(CSc1nnnn1-c1cccc2ccccc12)Nc1ccc(O)cc1` [Entry 225] reads greater than 100 nM; that for `COc1ccc(-n2nnnc2SCC(=O)Nc2ccccc2[N+](=O)[O-])c(OC)c1` [Entry 131], greater than 100 nM; that for `COc1ccccc1NC(=O)CSc1nnnn1-c1cccc2ccccc12` [Entry 212], greater than 100 nM.

Consider `O=C(NCCSc1nnnn1-c1cccc2ccccc12)Nc1ccccc1Cl` [Entry 334], for which the IC50 is greater than 100 nM.

Take `CN(CC(=O)Nc1ccccc1[N+](=O)[O-])Cc1nnnn1-c1cccc2ccccc12` [Entry 338]: the IC50 is greater than 100 nM.

For the compound `CN(C(=O)CSc1nnnn1-c1cccc2ccccc12)c1ccccc1Cl` [Entry 342], the IC50 was greater than 100 nM. Take `Cc1ccccc1NC(=O)CSc1nccn1-c1cccc2ccccc12` [Entry 414]: the IC50 was greater than 100 nM.

In the case of `O=C(CS(=O)(=O)c1ccccc1-c1cccc2ccccc12)Nc1ccccc1Cl` [Entry 408], the IC50 was greater than 100 nM. As for `Clc1ccccc1OCCSc1nnnn1-c1cccc2ccccc12` [Entry 321], the figure is greater than 100 nM; as for `Cc1cccc(NC(=O)CSc2nnnn2-c2cccc3ccccc23)c1C` [Entry 228], greater than 100 nM.

As for `O=C(C[S+]([O-])c1ccccc1-c1cccc2ccccc12)Nc1ccccc1Cl` (centres unmarked) [Entry 407], the IC50 was greater than 100 nM. As for `Clc1ccccc1CCCSc1nnnn1-c1cccc2ccccc12` [Entry 311], the IC50 is greater than 100 nM.

In the case of `O=C(CSc1nnnn1Cc1ccc2ccccc2c1)Nc1ccccc1[N+](=O)[O-]` [Entry 107], the IC50 was greater than 100 nM. As for `O=C(CCCc1nnnn1-c1cccc2ccccc12)Nc1ccccc1[N+](=O)[O-]` [Entry 306], the figure is greater than 100 nM; as for `O=[N+]([O-])c1ccccc1NCCSc1nnnn1-c1cccc2ccccc12` [Entry 326], greater than 100 nM; as for `O=[N+]([O-])c1cccc2[nH]c(CSc3nnnn3-c3cccc4ccccc34)nc12` [Entry 340], greater than 100 nM. The result for `O=C(CSc1nnnn1-c1cccc2ccccc12)Cc1ccccc1[N+](=O)[O-]` [Entry 345] reads greater than 100 nM; that for `O=C(CSc1nnnn1-c1cccc2ccccc12)Nc1ccc([N+](=O)[O-])cc1` [Entry 227], greater than 100 nM. As for `O=C(CSc1nnnn1-c1cccc2ccccc12)Nc1ccc(-c2ccccc2)cc1` [Entry 226], the figure is greater than 100 nM; as for `COC(=O)c1cccc(-n2nnnc2SCC(=O)Nc2ccccc2[N+](=O)[O-])c1` [Entry 120], greater than 100 nM. Regarding `O=C(CSc1nnnn1-c1cccc2ccccc12)Nc1cccc2c1CCCC2` [Entry 229], the IC50 is greater than 100 nM. The result for `O=C(CSc1nnnn1-c1cccc2ccccc12)Nc1ccccc1C(F)(F)F` [Entry 214] reads greater than 100 nM. The result for `O=C(CNc1nnnn1-c1cccc2ccccc12)Nc1ccccc1[N+](=O)[O-]` [Entry 303] reads greater than 100 nM; that for `O=C(CSc1nnnn1-c1cccc2ccccc12)NCc1ccccc1[N+](=O)[O-]` [Entry 344], greater than 100 nM; that for `O=[N+]([O-])c1ccccc1CCSc1nnnn1-c1cccc2ccccc12` [Entry 310], greater than 100 nM. As for `O=[N+]([O-])c1ccccc1C(O)CSc1nnnn1-c1cccc2ccccc12` (centres unmarked) [Entry 309], the figure is greater than 100 nM; as for `O=C(CSc1nnnn1-c1cccc2ccccc12)Nc1cccc(Cl)c1F` [Entry 232], greater than 100 nM; as for `O=C(OCCSc1nnnn1-c1cccc2ccccc12)c1ccccc1Cl` [Entry 323], greater than 100 nM.

With `Clc1ccccc1/C=C/CSc1nnnn1-c1cccc2ccccc12` [Entry 313], the IC50 was greater than 100 nM. As for `O=C(CSc1nnnn1-c1cccc2ccccc12)Nc1cccnc1` [Entry 244], the figure is greater than 100 nM; as for `O=C(CSc1nnnn1-c1cccc2ccccc12)Nc1ccccn1` [Entry 243], greater than 100 nM.

For the compound `O=[N+]([O-])c1ccccc1/C=C/CSc1nnnn1-c1cccc2ccccc12` [Entry 312], the IC50 was greater than 100 nM. As to `O=C(CSc1nnnn1-c1cccc2ccccc12)Nc1cccc([N+](=O)[O-])c1` [Entry 223], the concentration for half-maximal inhibition (IC50) is greater than 100 nM.

As to `Cc1ccccc1-c1ccc(-n2nnnc2SCC(=O)Nc2ccccc2[N+](=O)[O-])c(C)c1` [Entry 132], the IC50 was greater than 100 nM. As to `O=[N+]([O-])c1ccccc1CNCCSc1nnnn1-c1cccc2ccccc12` [Entry 328], the IC50 was greater than 100 nM.

For `O=C(CSc1nnnn1-c1cccc2ccccc12)Nc1c(Cl)cccc1Cl` [Entry 241], the IC50 is greater than 100 nM. In the case of `O=C(CSc1nnnn1-c1cccc2ccccc12)Nc1ccccc1-n1cccc1` [Entry 222], the IC50 was greater than 100 nM. The result for `O=C(NCCSc1nnnn1-c1cccc2ccccc12)c1ccccc1Cl` [Entry 331] reads greater than 100 nM. The result for `COC(=O)c1ccccc1NC(=O)CSc1nnnn1-c1cccc2ccccc12` [Entry 216] reads greater than 100 nM. The result for `O=[N+]([O-])c1ccccc1OCCSc1nnnn1-c1cccc2ccccc12` [Entry 320] reads greater than 100 nM; that for `Cc1cc(C)c(-n2nnnc2SCC(=O)c2ccc3c(c2)OCO3)c(C)c1` [Entry 423], greater than 100 nM.

For `CCc1ccccc1NC(=O)CSc1nnnn1-c1cccc2ccccc12` [Entry 203], the half-maximal inhibitory concentration (IC50) is greater than 100 nM. Consider `O=C(CSc1nnnn1-c1cccc2ncccc12)Nc1ccccc1[N+](=O)[O-]` [Entry 106], for which the IC50 was greater than 100 nM.

Consider `O=C(CSc1nnnn1-c1cccc2ccccc12)Nc1ccccc1-c1ccccc1` [Entry 206], for which the IC50 was greater than 100 nM. The result for `CN(CCSc1nnnn1-c1cccc2ccccc12)C(=O)c1ccccc1Cl` [Entry 332] reads greater than 100 nM; that for `O=C(CCC1=C(c2cccc3ccccc23)CCC1)Nc1ccccc1Cl` [Entry 405], greater than 100 nM; that for `O=C(COCc1nnnn1-c1cccc2ccccc12)Nc1ccccc1[N+](=O)[O-]` [Entry 336], greater than 100 nM. `CC(=O)c1ccccc1NC(=O)CSc1nnnn1-c1cccc2ccccc12` [Entry 215]: the IC50 was greater than 100 nM. The result for `O=C(CSc1nnnn1-c1cccc2ccccc12)Nc1ccccc1F` [Entry 207] reads greater than 100 nM; that for `O=[N+]([O-])c1ccccc1NCCCSc1nnnn1-c1cccc2ccccc12` [Entry 329], greater than 100 nM. The result for `COc1cc(NC(=O)CSc2nnnn2-c2cccc3ccccc23)cc(OC)c1` [Entry 242] reads greater than 100 nM; that for `Cc1ccc(NC(=O)CSc2nnnn2-c2cccc3ccccc23)c(C)c1` [Entry 233], greater than 100 nM; that for `O=C(CNCc1nnnn1-c1cccc2ccccc12)Nc1ccccc1[N+](=O)[O-]` [Entry 337], greater than 100 nM. As for `NS(=O)(=O)c1ccccc1NC(=O)CSc1nnnn1-c1cccc2ccccc12` [Entry 220], the figure is greater than 100 nM; as for `O=C1C(Sc2nnnn2-c2cccc3ccccc23)CCN1c1ccccc1Cl` (centres unmarked) [Entry 346], greater than 100 nM.

`O=C(OCCSc1nnnn1-c1cccc2ccccc12)c1ccccc1[N+](=O)[O-]` [Entry 322]: the IC50 is greater than 100 nM.

Consider `CN(CCSc1nnnn1-c1cccc2ccccc12)c1ccccc1[N+](=O)[O-]` [Entry 327], for which the IC50 is greater than 100 nM.

Regarding `O=C(NCCSc1nnnn1-c1cccc2ccccc12)Nc1ccccc1[N+](=O)[O-]` [Entry 333], the IC50 is greater than 100 nM. The result for `O=C(CSc1nnnn1-c1cccc2ccccc12)Nc1ccccc1Cc1ccccc1` [Entry 205] reads greater than 100 nM; that for `O=C(CCc1ccccc1-c1cccc2ccccc12)Nc1ccccc1Cl` [Entry 410], greater than 100 nM; that for `COc1ccc(NC(=O)CSc2nnnn2-c2cccc3ccccc23)cc1` [Entry 224], greater than 100 nM. The result for `CSc1ccccc1NC(=O)CSc1nnnn1-c1cccc2ccccc12` [Entry 218] reads greater than 100 nM. As for `O=C(CCCc1nnnn1-c1cccc2ccccc12)Nc1ccccc1Cl` [Entry 305], the IC50 is greater than 100 nM. As for `COc1ccccc1NC(=O)CSc1nccn1-c1cccc2ccccc12` [Entry 415], the figure is greater than 100 nM; as for `Clc1ccccc1OCCCSc1nnnn1-c1cccc2ccccc12` [Entry 324], greater than 100 nM; as for `OC(CSc1nnnn1-c1cccc2ccccc12)C(O)c1ccccc1Cl` (centres unmarked) [Entry 319], greater than 100 nM.

For the compound `CC(C)c1ccccc1NC(=O)CSc1nnnn1-c1cccc2ccccc12` [Entry 204], the IC50 was greater than 100 nM.

With `Cc1cccc(C)c1-n1nnnc1SCC(=O)Nc1ccccc1[N+](=O)[O-]` [Entry 138], the IC50 was greater than 100 nM.

On to `CCOc1ccccc1NC(=O)CSc1nnnn1-c1cccc2ccccc12` [Entry 213], for which the IC50 is greater than 100 nM.
